The values below come from patent US12661355B2, “Compounds and methods for inducing UCP1 expression” (The Regents of the University of California, priority 2020, dated 2026).

Each structure is given as a SMILES string.

Test [1] concerns the target T1, AKAP1 (Mus musculus, UniProt O08715).
T1 construct: from tissue; host or cells: mouse brown adipose tissue (BAT) lysate; also mouse brown adipocyte extracts
T1 sequence (O08715 30-857): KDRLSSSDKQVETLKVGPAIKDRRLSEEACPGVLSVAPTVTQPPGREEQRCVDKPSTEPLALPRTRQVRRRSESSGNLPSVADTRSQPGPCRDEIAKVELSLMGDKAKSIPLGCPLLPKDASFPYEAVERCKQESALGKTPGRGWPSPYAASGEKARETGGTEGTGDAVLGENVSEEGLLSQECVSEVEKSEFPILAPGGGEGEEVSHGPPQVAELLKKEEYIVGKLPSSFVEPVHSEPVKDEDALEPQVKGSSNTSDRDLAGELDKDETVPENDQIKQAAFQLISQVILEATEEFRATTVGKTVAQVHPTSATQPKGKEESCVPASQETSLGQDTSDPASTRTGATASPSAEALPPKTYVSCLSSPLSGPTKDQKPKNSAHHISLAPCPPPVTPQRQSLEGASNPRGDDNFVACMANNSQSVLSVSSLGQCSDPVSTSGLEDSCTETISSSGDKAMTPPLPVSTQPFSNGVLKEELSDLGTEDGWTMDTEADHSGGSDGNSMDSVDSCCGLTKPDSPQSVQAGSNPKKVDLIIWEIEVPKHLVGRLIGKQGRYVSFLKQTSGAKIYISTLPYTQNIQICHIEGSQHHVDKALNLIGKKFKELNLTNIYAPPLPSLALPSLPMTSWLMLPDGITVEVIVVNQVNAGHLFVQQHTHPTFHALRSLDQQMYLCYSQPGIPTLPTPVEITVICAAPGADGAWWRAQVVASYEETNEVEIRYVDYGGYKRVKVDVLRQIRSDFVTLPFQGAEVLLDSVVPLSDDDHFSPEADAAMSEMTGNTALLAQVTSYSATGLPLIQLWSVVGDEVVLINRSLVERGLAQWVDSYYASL
The test can be described thus: Drug Affinity Responsive Target Stability (DARTS) in BAT or brown adipocyte extracts, AKAP1. The format is binding. To be noted: 1 h; for effect on AKAP1 (pronase susceptibility): mouse brown adipocyte extracts, 20 μM (CL316,243 20 nM). On the procedure:
[…] assays were performed according to known methods. Briefly, BAT or cells within a 10 cm dish were lysed with 600 μl M-PER buffer containing protease and phosphatase inhibitors. Debris was pelleted by centrifugation at 18,000 g for 10 min at 4° C., and the lysates were harvested and supplemented with TNC buffer (50 mM Tris-HCl, 50 mM NaCl, 10 mM CaCl2). The lysates were split into two tubes and treated with either vehicle or 20 μM Z160 for 1 h at room temperature. For experiment with BAT, 100 μg of lysate was incubated with different Z160 concentrations. Different concentrations of pronase (from 1:100 to 1:10,000 dilution from a 1.25 mg/ml pronase stock) were incubated with the samples for 30 min at room temperature and the reaction was stopped with SDS loading buffer followed immediately by heating at 70° C. for 10 min. Protein lysates were separated by SDS-PAGE and transferred to a nitrocellulose membrane. After blocking in 5% milk, 0.1% Tween-20 in Tris-buffered saline (TBS), primary antibody was incubated overnight at 4° C. in 5% bovine serum albumin and 0.1% Tween-20 in TBS. Primary antibodies against AKAP1 (5203, Cell Signaling), AKAP13 (39715, One World Lab), GAPDH (GTX100118, Genetex), OPA1 (39557, One World Lab), PKA C-α (4782, Cell Signaling), PKA RII-β (ab75993, Abcam), were used at 1:2000. A goat anti-rabbit secondary antibody (sc-2030, Santa Cruz Biotechnology, Inc) was used at a 1:10,000 dilution for 1 h at room temperature in 5% milk and 0.1% Tween-20 in TBS.
The PKA tetramer consists of two catalytic and two regulatory subunits. In the mouse, these are catalytic subunits C-α and C-β, and regulatory subunits RI and RII, each with α and β isoforms (RI-α, RI-β, RII-α, RII-β). PKA is also bound to a family of anchoring proteins, A-kinase anchoring proteins (AKAPs), which allow the compartmentalization of cAMP signaling. To investigate whether Z160 binds PKA complex proteins, two techniques were applied both of which rely on ligand-induced alterations in protein stability: Cellular Thermal Shift Assay (CETSA) and Drug Affinity Responsive Target Stability (DARTS). CETSA is based on the principle that ligand binding will change the temperature at which a protein starts to unfold and aggregate, while DARTS relies on the protection of a protein from proteolysis upon specific binding to a small molecule.
To provide further evidence for an interaction between Z160 and AKAP1, DARTS assays were employed. Lysates from brown fat were treated with different Z160 concentrations for 1 h followed by pronase digestion and immunoblotting. […] The effect of Z160 on AKAP1 was confirmed using mouse brown adipocyte extracts (FIG. 15A).

Test [2] deals with immortalized brown adipocytes. The test can be described thus: Cellular respiration (Seahorse) in immortalized brown adipocytes. The note with it: 10 μM. The format is cell-based, mouse. On the procedure: Cellular respiration was measured using a Seahorse XF24 or XF96 analyzer (Agilent) following known protocols Immortalized brown adipocytes were differentiated in 6-well plates and replated in the Seahorse XF24 plates at a density of 50,000 cells per well using trypsin and collagenase type II. Cells were treated with vehicle (DMSO) or compounds for 18-24 h. Oxygen consumption rates were obtained before and after the sequential injection of 0.75 μM oligomycin, 0.5 μM FCCP, and 0.75 μM rotenone/myxothiazol. Results were normalized to total protein. For human white adipocytes, cells were cultured as described above and differentiated in XF96 microplates. DMSO or Z160 (10 μM) was added at day 17 and for 4 days. Oxygen consumption rates were measured before and after the sequential injection of 1 μM oligomycin, 1 μM FCCP, and 0.5 μM rotenone/antimycin A. For these cells, results were normalized to cell count determined by nuclei fluorescent staining with Hoescht staining imaged on Cytation 5 Imaging Reader and analysis with Gen5 software (BioTek). For both mouse and human cell lines, mitochondrial respiration was calculated by subtracting the non-mitochondrial respiration present after the last injection. Uncoupled respiration corresponds to the respiration difference between oligomycin and the last injections. Maximal respiration was determined after FCCP injection.

For the compound `O=C(CSc1nc2ccccc2c(=O)[nH]1)Nc1ccc2c(c1)OCCO2` [AST070, N-(2,3-dihydro-1,4-benzodioxin-6-yl)-2-[(4-oxo-3,4-dihydroquinazolin-2-yl)sulfanyl]acetamide], the “effect on AKAP1 (pronase susceptibility)” value in test [1] is on record as “effect of AST070 or Z160 on AKAP1”. For the same compound, in test [2], the maximal respiration entry is listed as “significantly elevated”, the mitochondrial respiration entry is “increased” and the uncoupled respiration result is on record as “increased”.
`COc1ccc(NC(=O)CSc2nc3ccccc3c(=O)[nH]2)c(OC)c1` [Z160]: in test [1] (brown fat lysates, pronase 1:4000), the “pronase susceptibility of AKAP1” value is reported as “altered pronase susceptibility”. For the same compound, in test [1], the “effect on AKAP1 (pronase susceptibility)” value is “confirmed”. In test [2], the maximal respiration entry is on record as “showed the same trend”, the mitochondrial respiration entry is reported as “increased” and the uncoupled respiration result is on record as “increased”.
